Here are results for one compound from US20240358692A1, “TREATMENT OF SCLERODERMA” (Aisa Pharma, Inc., priority 2023, published 2024).

SMILES strings stand for the structures.

Data set [1] has as its system participants with SSc-RP. Type of data set: in vivo. The settings on record: tadalafil monotherapy group. The source says: Treatment-emergent AEs (TEAEs) are defined as AEs that occur or worsen after the dose of study drug. If the timing of the start of an AE could not be determined unambiguously from the start or end dates provided, it will be assumed to be a TEAE. An AE is considered related if the relationship to either of the study drug has been indicated as possibly or probably or definite related by the investigator. An AE leading to study withdrawal is defined as an AE that cause a subject early terminated from the study. AEs will be identified as emerging in the following parts: • TEAEs for Part A will be those that started during Part A (i.e., from the first dose in Part A to end of follow up of Part A) • TEAEs for Part B will be those that started during Part B (i.e., from the first dose in Part B to end of follow-up of Part B).
In this study, AEs and SAEs were reported for all participants from the time of randomization until the completion of the Follow-up/EOS visit. Adverse events that were ongoing at the EOS visit were marked as Not Recovered/Not resolved on the AE eCRF page (see Section 9.4.4). The Investigator did full AE review during in-clinic visit. All spontaneously volunteered and enquired for, as well as observed AEs, were recorded in the participant's medical records and the eCRF.
Severity of AEs were graded by the Investigator as one of: • Mild (Grade 1): A type of AE that is usually transient and may require only minimal treatment or therapeutic intervention.

For data set [2], the system named is participants with SSc-RP. Put plainly: SHAQ - Visual Analog Scale - Overall Disease Severity. The format is in vivo, human. To be noted: tadalafil 5 mg. The source says: The standard, validated, patient reported outcome measures tool for SSc patients, the Scleroderma Health Assessment Questionnaire (SHAQ), will be used to assess the participant qualify of life. Details are attached in the Appendix. The participant quality of life will be scored, and a disability index calculated for each questionnaire completed by the patient at Screening and each in-clinic visit. The absolute change in participant quality of life from baseline to the end of each dosing period will be calculated similar to frequency data as before.
The standard, validated, patient reported outcome measures tool for SSc patients, the SHAQ, was collected at the time points specified in the study schedules (FIG. 2 and FIGS. 4A and 4B) to assess the participant's quality of life. The SHAQ included a Raynaud's VAS that will also be reported separately.

Take `CN1CC(=O)N2[C@H](c3ccc4c(c3)OCO4)c3[nH]c4ccccc4c3C[C@@H]2C1=O` [Tadalafil]: the “Worst AE (group)” value in the data set on participants with SSc-RP [1] is on record as “Worst AE in tadalafil”. In the data set with participants with SSc-RP [2], the “VAS Overall Severity Change from Baseline Max” value worked out at 2.40, the “VAS Overall Severity Change from Baseline Median” value was 0.700, the “VAS Overall Severity Change from Baseline Min” value was −1.30 and the “VAS Overall Severity Change from Baseline Q1” value was −0.600. In addition, in the data set with participants with SSc-RP [2], the “VAS Overall Severity Change from Baseline Q3” value was determined as 1.850, the “VAS Overall Severity Day 12 Max” value came to 9.10, the “VAS Overall Severity Day 12 Mean” value came out at 5.600 and the “VAS Overall Severity Day 12 Min” value was found to be 0.20. Also, in the data set with participants with SSc-RP [2], the “VAS Overall Severity Day 12 Q1” value is 2.200, the “VAS Overall Severity Day 12 Q3” value was found to be 9.000, the “VAS Overall Severity Percent Change from Baseline Max” value came out at 100.0% and the “VAS Overall Severity Percent Change from Baseline Min” value is given as −23.6%. In addition, in the data set with participants with SSc-RP [2], the “VAS Overall Severity Percent Change from Baseline Q1” value was −3.48% and the “VAS Overall Severity Percent Change from Baseline Q3” value is on record as 68.46%.
